Source: patent publication US8188078B2 (Sanofi-Aventis, priority 2007, dated 2012)
Structures can show the parent of a compound that is named as a salt.

How the values were obtained:
[1] = target: T1, c-MET (Homo sapiens, UniProt P08581); assay: Test A: HTRF Met test in 96-well format; type: biochemical
T1 construct: The recombinant DNA His-Tev-MET (956-1390) in pFastBac(Invitrogen); His (N, cleaved yes); Tev (TEV protease site) (N, cleaved yes); made in house; host or cells: SF21 insect cells (baculovirus, pFastBac)
Procedure, shortened: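 The kinase was the Sf21-expressed MET cytoplasmic domain (956–1390), His tag removed, used at 5 nM with compound (0.17 nM–10 µM, 3% DMSO) in 10 mM MOPS pH 7.4. Poly-GAT 1 µg/ml, 10 µM ATP and 5 mM MgCl2 reacted 10 min at RT. After an EDTA stop, phosphotyrosine was detected by HTRF (665/620 ratio).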

[2] = test system: MKN45 cells; assay: Test D: cellular proliferation by 14C-thymidine pulse, MKN45 cells; type: cell-based; settings: cell line not stated (HCT116 or MKN45)
Procedure, shortened: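 MKN45 cells (7500/well, RPMI + 10% foetal calf serum) treated with 10 concentrations, 10000 to 0.3 nM in 3-fold steps, duplicate. 14C-thymidine (0.1 μCi/well) added at 72 h; incorporation counted after 24 h pulse, 96 h total treatment.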

[3] = Homo sapiens, MKN-45, cellular proliferation by 14C-thymidine pulse
[4] = cellular proliferation by 14C-thymidine pulse

T1 sequence (P08581 956-1390): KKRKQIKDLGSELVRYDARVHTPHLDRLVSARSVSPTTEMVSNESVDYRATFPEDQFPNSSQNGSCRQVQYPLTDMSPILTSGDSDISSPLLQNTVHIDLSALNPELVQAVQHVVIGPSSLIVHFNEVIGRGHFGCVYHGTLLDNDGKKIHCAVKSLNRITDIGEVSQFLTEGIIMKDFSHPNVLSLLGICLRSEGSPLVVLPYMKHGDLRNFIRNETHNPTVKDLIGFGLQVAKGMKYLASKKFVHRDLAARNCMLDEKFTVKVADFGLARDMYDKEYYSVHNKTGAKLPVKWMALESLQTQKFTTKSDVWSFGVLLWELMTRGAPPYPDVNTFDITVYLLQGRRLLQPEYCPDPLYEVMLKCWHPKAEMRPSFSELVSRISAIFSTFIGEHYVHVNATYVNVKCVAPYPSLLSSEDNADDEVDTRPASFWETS

CC(Oc1ccc2nc(NC(=O)NCc3ccccn3)sc2c1)c1c(Cl)ccc(F)c1Cl (stereo not shown) [Example 58, 1-{6-[1-(2,6-dichloro-3-fluorophenyl)ethoxy]-1,3-benzothiazol-2-yl}-3-(pyridin-2-ylmethyl)urea]
IC50 [1]: < 0.1 µM | IC50 [2, 3]: > 10 µM

CC(Oc1ccc2nc(NC(=O)OCCN3CCOCC3)sc2c1)c1c(Cl)ccc(F)c1Cl (stereo not shown) [Example 74]
IC50 [1]: < 0.1 µM | IC50 [2, 3]: 0.5 to 10 µM

CC(Oc1ccc2nc(NC(=O)NCCCN3CCCCCC3)sc2c1)c1c(Cl)ccc(F)c1Cl (stereo not shown) [Example 48, 1-(3-azepan-1-ylpropyl)-3-{6-[1-(2,6-dichloro-3-fluorophenyl)ethoxy]-1,3-benzothiazol-2-yl}urea]
IC50 [1]: < 0.1 µM | IC50 [2, 3]: > 10 µM

CC(Oc1ccc2nc(NC(=O)NCCC3CCCN3C)sc2c1)c1c(Cl)ccc(F)c1Cl (stereo not shown) [Example 53, 1-{6-[1-(2,6-dichloro-3-fluorophenyl)ethoxy]-1,3-benzothiazol-2-yl}-3-[2-(1-methylpyrrolidin-2-yl)ethyl]urea]
IC50 [1]: < 0.1 µM | IC50 [2, 3]: < 0.5 µM

CC(Oc1ccc2nc(NC(=O)NCCN3C(C)CCCC3C)sc2c1)c1c(Cl)ccc(F)c1Cl (stereo not shown) [Example 56, 1-{6-[1-(2,6-dichloro-3-fluorophenyl)ethoxy]-1,3-benzothiazol-2-yl}-3-[2-(2,6-dimethylpiperidin-1-yl)ethyl]urea]
IC50 [1]: < 0.1 µM | IC50 [2, 3]: < 0.5 µM

CC(Oc1cc2sc(NC(=O)NCCN3CCNC(=O)C3)nc2cc1F)c1c(Cl)ccc(F)c1Cl (stereo not shown) [Example 130, 1-{6-[1-(2,6-dichloro-3-fluorophenyl)ethoxy]-5-fluoro-1,3-benzothiazol-2-yl}-3-[2-(3-oxopiperazin-1-yl)ethyl]urea]
IC50 [1]: < 0.1 µM | IC50 [2, 3]: 0.5 to 10 µM

CC(Oc1ccc2nc(NC(=O)NCCN3CCOCC3)sc2c1)c1c(Cl)ccc(F)c1Cl (single isomer, unassigned) [Example 25, 1-{6-[(1R*)-(2,6-dichloro-3-fluorophenyl)ethoxy]-1,3-benzothiazol-2-yl}-3-(2-morpholin-4-ylethyl)urea]
IC50 [1]: < 0.1 µM | IC50 [2, 4]: < 0.5 µM

CC(Oc1ccc2nc(NC(=O)NCCCn3cccc3)sc2c1)c1c(Cl)ccc(F)c1Cl (stereo not shown) [Example 40, 1-{6-[1-(2,6-dichloro-3-fluorophenyl)ethoxy]-1,3-benzothiazol-2-yl}-3-[3-(1H-pyrrol-1-yl)propyl]urea]
IC50 [1]: < 0.1 µM | IC50 [2, 3]: > 10 µM

CC(Oc1ccc2nc(NC(=O)NCCN3CCN(C)CC3)sc2c1)c1c(Cl)ccc(F)c1Cl (stereo not shown) [Example 55, 1-{6-[1-(2,6-dichloro-3-fluorophenyl)ethoxy]-1,3-benzothiazol-2-yl}-3-[2-(4-methylpiperazin-1-yl)ethyl]urea]
IC50 [1]: < 0.1 µM | IC50 [2, 3]: < 0.5 µM

CC(Oc1ccc2nc(NC(=O)NCCN3CCCCCC3)sc2c1)c1c(Cl)ccc(F)c1Cl (stereo not shown) [Example 54, 1-(2-azepan-1-ylethyl)-3-{6-[1-(2,6-dichloro-3-fluorophenyl)ethoxy]-1,3-benzothiazol-2-yl}urea]
IC50 [1]: < 0.1 µM | IC50 [2, 3]: 0.5 to 10 µM

CCN1CCN(CCNC(=O)Nc2nc3cc(F)c(OC(C)c4c(Cl)ccc(F)c4Cl)cc3s2)CC1 (single isomer, unassigned) [Example 101, 1-{6-[(1R*)-1-(2,6-dichloro-3-fluorophenyl)ethoxy]-5-fluoro-1,3-benzothiazol-2-yl}-3-[2-(4-ethylpiperazin-1-yl)ethyl]urea]
IC50 [1]: < 0.1 µM | IC50 [2, 3]: < 0.5 µM

CC(Oc1ccc2nc(NC(=O)NCc3cccnc3)sc2c1)c1c(Cl)ccc(F)c1Cl (stereo not shown) [Example 59, 1-{6-[1-(2,6-dichloro-3-fluorophenyl)ethoxy]-1,3-benzothiazol-2-yl}-3-(pyridin-3-ylmethyl)urea]
IC50 [1]: < 0.1 µM | IC50 [2, 3]: 0.5 to 10 µM

CC(Oc1ccc2nc(NC(=O)NCCN3CCCCC3)sc2c1)c1c(Cl)ccc(F)c1Cl (stereo not shown) [Example 50, 1-{6-[1-(2,6-dichloro-3-fluorophenyl)ethoxy]-1,3-benzothiazol-2-yl}-3-(2-piperidin-1-ylethyl)urea]
IC50 [1]: < 0.1 µM | IC50 [2, 3]: 0.5 to 10 µM

CC(Oc1ccc2nc(NC(=O)NCCCN3CCCCC3)sc2c1)c1c(Cl)ccc(F)c1Cl (stereo not shown) [Example 44, 1-{6-[1-(2,6-dichloro-3-fluorophenyl)ethoxy]-1,3-benzothiazol-2-yl}-3-(3-piperidin-1-ylpropyl)urea]
IC50 [1]: < 0.1 µM | IC50 [2, 3]: < 0.5 µM

CC(Oc1ccc2nc(NC(=O)NCCCN3CCOCC3)sc2c1)c1c(Cl)ccc(F)c1Cl (stereo not shown) [Example 42, 1-{6-[1-(2,6-dichloro-3-fluorophenyl)ethoxy]-1,3-benzothiazol-2-yl}-3-(3-morpholin-4-ylpropyl)urea]
IC50 [1]: < 0.1 µM | IC50 [2, 3]: 0.5 to 10 µM

CC(Oc1cc2sc(NC(=O)NCCN3CCCC3)nc2cc1F)c1c(F)ccc(Cl)c1Cl (single isomer, unassigned) [Example 119, 1-{6-[(1R*)-1-(2,3-dichloro-6-fluorophenyl)ethoxy]-5-fluoro-1,3-benzothiazol-2-yl}-3-[2-(pyrrolidin-1-yl)ethyl]urea]
IC50 [1]: < 0.1 µM | IC50 [2, 3]: < 0.5 µM

CCN(CC)CCCOC(=O)Nc1nc2cc(F)c(OC(C)c3c(Cl)ccc(F)c3Cl)cc2s1 (stereo not shown) [Example 70]
IC50 [1]: < 0.1 µM | IC50 [2, 3]: 0.5 to 10 µM

CCN1CCN(CCNC(=O)Nc2nc3cc(F)c(OC(C)c4c(Cl)ccc(F)c4Cl)cc3s2)CC1 (single isomer, unassigned) [Example 102, 1-{6-[(1S*)-1-(2,6-dichloro-3-fluorophenyl)ethoxy]-5-fluoro-1,3-benzothiazol-2-yl}-3-[2-(4-ethylpiperazin-1-yl)ethyl]urea]
IC50 [1]: < 0.1 µM | IC50 [2, 4]: 0.5 to 10 µM

CC(Oc1ccc2nc(NC(=O)NCCCN3CCC(Cc4ccccc4)CC3)sc2c1)c1c(Cl)ccc(F)c1Cl (stereo not shown) [Example 41, 1-[3-(4-benzylpiperidin-1-yl)propyl]-3-{6-[1-(2,6-dichloro-3-fluorophenyl)ethoxy]-1,3-benzothiazol-2-yl}urea]
IC50 [1]: < 0.1 µM | IC50 [2, 3]: > 10 µM

CC(Oc1cc2sc(NC(=O)NCCN3CCOCC3)nc2cc1F)c1c(F)ccc(Cl)c1Cl (single isomer, unassigned) [Example 113, 1-{6-[(1S*)-1-(2,3-dichloro-6-fluorophenyl)ethoxy]-5-fluoro-1,3-benzothiazol-2-yl}-3-[2-(morpholin-4-yl)ethyl]urea]
IC50 [1]: < 0.1 µM | IC50 [2, 4]: 0.5 to 10 µM

CC(Oc1ccc2nc(NC(=O)NCCN3CCN(C)CC3)sc2c1)c1c(F)ccc(Cl)c1Cl (single isomer, unassigned) [Example 109, 1-{6-[(1R*)-1-(2,3-dichloro-6-fluorophenyl)ethoxy]-1,3-benzothiazol-2-yl}-3-[2-(4-methylpiperazin-1-yl)ethyl]urea]
IC50 [1]: < 0.1 µM | IC50 [2, 3]: < 0.5 µM

CC(Oc1ccc2nc(NC(=O)NCCCN3CCN(Cc4ccccc4)CC3)sc2c1)c1c(Cl)ccc(F)c1Cl (stereo not shown) [Example 49, 1-[3-(4-benzylpiperazin-1-yl)propyl]-3-{6-[1-(2,6-dichloro-3-fluorophenyl)ethoxy]-1,3-benzothiazol-2-yl}urea]
IC50 [1]: < 0.1 µM | IC50 [2, 3]: 0.5 to 10 µM

CC(Oc1ccc2nc(NC(=O)NCCCN3CCN(Cc4c(F)cccc4Cl)CC3)sc2c1)c1c(Cl)ccc(F)c1Cl (stereo not shown) [Example 46, 1-{3-[4-(2-chloro-6-fluorobenzyl)piperazin-1-yl]propyl}-3-{6-[1-(2,6-dichloro-3-fluorophenyl)ethoxy]-1,3-benzothiazol-2-yl}urea]
IC50 [1]: < 0.1 µM | IC50 [2, 3]: > 10 µM

CC(Oc1ccc2nc(NC(=O)NCCCN3CCCC3=O)sc2c1)c1c(Cl)ccc(F)c1Cl (stereo not shown) [Example 45, 1-{6-[1-(2,6-dichloro-3-fluorophenyl)ethoxy]-1,3-benzothiazol-2-yl}-3-[3-(2-oxopyrrolidin-1-yl)propyl]urea]
IC50 [1]: < 0.1 µM | IC50 [2, 3]: 0.5 to 10 µM

CC(Oc1ccc2nc(NC(=O)NCCN3CCOCC3)sc2c1)c1c(F)cccc1F (stereo not shown) [Example 18, 1-{6-[1-(2,6-difluorophenyl)ethoxy]-1,3-benzothiazol-2-yl}-3-(2-morpholin-4-ylethyl)urea]
IC50 [1]: < 0.1 µM | IC50 [2, 3]: 0.5 to 10 µM

CC(Oc1ccc2nc(NC(=O)NCCN3CCCC3)sc2c1)c1c(Cl)ccc(F)c1Cl (stereo not shown) [Example 51, 1-{6-[1-(2,6-dichloro-3-fluorophenyl)ethoxy]-1,3-benzothiazol-2-yl}-3-(2-pyrrolidin-1-ylethyl)urea]
IC50 [1]: < 0.1 µM | IC50 [2, 3]: 0.5 to 10 µM

CC(Oc1ccc2nc(NC(=O)NCCN3CCOCC3)[nH]c2c1)c1c(Cl)ccc(F)c1Cl (stereo not shown) [Example 4, 4-{2-[({6-[1-(2,6-Dichloro-3-fluorophenyl)ethoxy]-1H-benzimidazol-2-yl}carbamoyl)amino]ethyl}morpholin-4-ium trifluoroacetate]
IC50 [1]: < 0.1 µM | IC50 [2, 3]: 0.5 to 10 µM

CC(Oc1ccc2nc(NC(=O)NCCCN(C)C)sc2c1)c1c(Cl)ccc(F)c1Cl (stereo not shown) [Example 43, 1-{6-[1-(2,6-dichloro-3-fluorophenyl)ethoxy]-1,3-benzothiazol-2-yl}-3-[3-(dimethylamino)propyl]urea]
IC50 [1]: < 0.1 µM | IC50 [2, 3]: > 10 µM

CC(Oc1cc2sc(NC(=O)NCCN3CCOCC3)nc2cc1F)c1c(F)ccc(Cl)c1Cl (single isomer, unassigned) [Example 112, 1-{6-[(1R*)-1-(2,3-dichloro-6-fluorophenyl)ethoxy]-5-fluoro-1,3-benzothiazol-2-yl}-3-[2-(morpholin-4-yl)ethyl]urea]
IC50 [1]: < 0.1 µM | IC50 [2, 3]: < 0.5 µM
